According to patent US9266904B2, “6-bridged heteroaryldihydropyrimidines for the treatment and prophylaxis of hepatitis B virus infection” (priority 2013, dated 2016):
Converted amounts (≈) assume the structure as drawn. Where two headings read alike, the source gives them in different places.

How the values were obtained:
[1] = Lyophilisation solubility assay (Lysa); type: physicochemical; conditions: thermodynamic from solid
Procedure: The aqueous solubility is an important physico-chemical property that plays a significant role in various physical and biological processes. It is desirable to have good solubility which enables good permeability and gastric and intestinal absorption, linear dose proportionality, less PK variability, and easy formulation for PD/PK studies. […] Lyophilisation solubility assay (Lysa) is a well adopted high throughput assay to measure compound solubility in industry.
Samples are prepared in duplicate from 10 mM DMSO stock solutions. After evaporation of DMSO with a centrifugal vacuum evaporator, the residue is solved in 0.05 M phosphate buffer (pH 6.5), stirred for one hour and then shook for two hours. After one night, the solution is filtered using a microtiter filter plate and then the filtrate and its 1/10 dilution are then analyzed by direct UV measurement or by HPLC-UV. In addition a four-point calibration curve is prepared from the 10 mM stock solutions and used for the solubility determination of the compounds. The results are in μg/ml. In case the percentage of sample measured in solution after evaporation divided by the calculated maximum of sample amount is bigger than 80% the solubility is reported as bigger than this value.

[2] = Human microsomal clearance assay; type: in vitro ADME; conditions: human, 1 μM, pH 7.4
Procedure: Microsomes were preincubated with test compound for 10 minutes at 37° C. in 100 mM phosphate buffer with pH 7.4. The reactions were initiated by adding NADPH regenerating system to give a final incubation volume of 400 μL. The incubations finally contained 1 μM test compound, 0.5 mg/mL liver microsomal protein, 3.0 mM glucose 6-phosphate, 1.0 mM NADP, 3.0 mM MgCl2 and 0.05 mg/mL glucose 6-phosphate dehydrogenase in 100 mM phosphate buffer with pH 7.4. After incubation times of 0, 3, 6, 9, 15 and 30 minutes, 50 μL, incubation was transferred to the quench solution containing the internal standard which was 2 μM tolbutamide. After precipitation and centrifugation, test compound concentrations in the samples were determined by LC-MS/MS. Controls of no NADPH regenerating system at zero and 30 minutes were also prepared and analyzed.

[3] = system: HBV replication in HepG2.2.15 cells; assay: Anti-HBV activity in vitro in HepG2.2.15 cells (extracellular HBV DNA by qPCR); type: cell-based; conditions: Hepatitis B virus
Excerpt: HepG2.2.15 and HepDE19 are stably-transfected cell lines containing the HBV genome. Both cell lines are derived from the hepatoblastoma cell line Hep G2 (American Type Culture Collection, ATCC® HB-8065™) by the published procedures described in references: M A Selles et al. Proc. Natl. Acad. Sci. USA 1987, 84, 1005-1009 and H Guo et al. Journal of Virology 2007, 81, 12472-12484, respectively. Both cell lines were maintained in Dulbecco's modified Eagle's medium (DMEM)-F12 medium supplemented with 10% fetal bovine serum, 100 U/mL penicillin, 100 μg/mL streptomycin, and 0.5 mg/mL of G418.
While HepG2.2.15 cells constitutively support HBV replication and production of virus particles, HepDE19 cells are inducible by tetracycline. Addition of 1 μg/mL tetracycline in culture medium suppresses HBV replication in HepDE19 cells, whereas switching to tetracycline-free medium resumes this process.
HepG2.2.15 cells were seeded into 96-well plates (3×10^4 cells in 100 μL media per well) and incubated overnight at 37° C. The test compounds were serially half-log diluted in DMSO, then diluted 100 times in culture media. 100 μL diluted compounds were added into the plates to reach 0.5% final concentration of DMSO in every well. Five days after compound treatment, culture supernatant was collected for further analysis.
For quantitative PCR detection of extracellular HBV DNA, 100 μL culture supernatant was collected and processed in MagNA Pure 96 Nucleic Acid Purification System (Roche Applied Science) for viral DNA extraction. The extracted samples were subjected to HBV DNA quantification by qPCR. The effective compound concentration at which HBV replication is inhibited by 50% (EC50) was determined.
The Examples were tested in the above assays as described herein and found to have EC50<1 μM in HepG2.2.15 assay.

[4] = HepG2.2.15, Anti-HBV activity in HepG2.2.15 cells, read-out: EC50

Compound | solubility thermodynamic ([1]; pH 6.5, aqueous buffer) [µg/mL] | CLh [2] [mL/min/kg] | EC50 [3, 4] [nM] | solubility thermodynamic ([1]; aqueous buffer, 0.05 M phosphate buffer (pH 6.5), reported as bigger than the value if more than 80% of the sample is in solution, read-out: Lysa) [µg/mL] | EC50 ([3]; HepG2.2.15) [nM]
CCOC(=O)C1=C(CN2C3COCC2C(OCC(=O)O)C3)NC(c2nccs2)=N[C@H]1c1ccc(F)cc1Br (mixture of isomers) [Example 50, 2-[[8-[[(4R)-4-(2-bromo-4-fluoro-phenyl)-5-ethoxycarbonyl-2-thiazol-2-yl-1,4-dihydropyrimidin-6-yl]methyl]-3-oxa-8-azabicyclo[3.2.1]octan-6-yl]oxy]acetic acid] | > 724 | 1.4 | 24.1 |  | 
COC(=O)C1=C(CN2C3COCC2CC(C(=O)O)C3)NC(c2nccs2)=N[C@H]1c1ccc(F)cc1Cl (stereo partly drawn) [Example 1, 9-[[(4R)-4-(2-chloro-4-fluoro-phenyl)-5-methoxycarbonyl-2-thiazol-2-yl-1,4-dihydropyrimidin-6-yl]methyl]-3-oxa-9-azabicyclo[3.3.1]nonane-7-carboxylic acid] | 540 (≈ 1010 µM) | 3.0 | 59 |  | 
COC(=O)C1=C(CN2C3COCC2CC(C(=O)O)C3)NC(c2nc(C)cs2)=N[C@H]1c1ccc(F)cc1Cl (stereo partly drawn) [Example 2, 9-[(R)-6-(2-Chloro-4-fluoro-phenyl)-5-methoxycarbonyl-2-(4-methyl-thiazol-2-yl)-3,6-dihydro-pyrimidin-4-ylmethyl]-3-oxa-9-aza-bicyclo[3.3.1]nonane-7-carboxylic acid] | 450 (≈ 820 µM) | 3.2 | 114 |  | 
COC(=O)C1=C(CN2C3COCC2CC(C(=O)O)C3)NC(c2nccs2)=NC1c1ccc(F)c(F)c1 (stereo not shown) [Example 3, 9-[6-(3,4-Difluoro-phenyl)-5-methoxycarbonyl-2-thiazol-2-yl-3,6-dihydro-pyrimidin-4-ylmethyl]-3-oxa-9-aza-bicyclo[3.3.1]nonane-7-carboxylic acid] | > 678 | 0 | 400 |  | 
COC(=O)C1=C(CN2C3COCC2CC(C(=O)O)C3)NC(c2nccs2)=N[C@H]1c1ccc(F)cc1Br (stereo partly drawn) [Example 5, 9-[(R)-6-(2-Bromo-4-fluoro-phenyl)-5-methoxycarbonyl-2-thiazol-2-yl-3,6-dihydro-pyrimidin-4-ylmethyl]-3-oxa-9-aza-bicyclo[3.3.1]nonane-7-carboxylic acid] | > 660 | 0 | 21 |  | 
COC(=O)C1=C(CN2C3COCC2CN(C(C)C)C3)NC(c2nccs2)=N[C@H]1c1ccc(F)cc1Cl [Example 13, (R)-4-(2-Chloro-4-fluoro-phenyl)-6-(7-isopropyl-3-oxa-7,9-diaza-bicyclo[3.3.1]non-9-ylmethyl)-2-thiazol-2-yl-1,4-dihydro-pyrimidine-5-carboxylic acid methyl ester] | 313 (≈ 586 µM) |  | 270 |  | 
COC(=O)C1=C(CN2C3COCC2CN(C(C)=O)C3)NC(c2nccs2)=N[C@H]1c1ccc(F)cc1Cl [Example 15, (R)-6-(7-Acetyl-3-oxa-7,9-diaza-bicyclo[3.3.1]non-9-ylmethyl)-4-(2-chloro-4-fluoro-phenyl)-2-thiazol-2-yl-1,4-dihydro-pyrimidine-5-carboxylic acid methyl ester] | 233 (≈ 436 µM) |  | 43 |  | 
COC(=O)C1=C(CN2C3CNC(=O)CC2COC3)NC(c2nccs2)=N[C@H]1c1ccc(F)cc1Cl (stereo partly drawn) [Example 34, (R)-4-(2-Chloro-4-fluoro-phenyl)-6-(4-oxo-8-oxa-3,10-diaza-bicyclo[4.3.1]dec-10-ylmethyl)-2-thiazol-2-yl-1,4-dihydro-pyrimidine-5-carboxylic acid methyl ester] | 263 (≈ 506 µM) |  | 42 |  | 
COC(=O)C1=C(CN2CC3CC2CN3C(C)=O)NC(c2nccs2)=N[C@H]1c1ccc(F)cc1Cl (stereo partly drawn) [Example 41, (R)-6-(5-Acetyl-2,5-diaza-bicyclo[2.2.1]hept-2-ylmethyl)-4-(2-chloro-4-fluoro-phenyl)-2-thiazol-2-yl-1,4-dihydro-pyrimidine-5-carboxylic acid methyl ester] |  |  |  | > 552 | 133
COC(=O)C1=C(CN2C3CSCC2CC(CC(=O)O)C3)NC(c2nccs2)=N[C@H]1c1ccc(F)cc1Cl (stereo partly shown) [Example 42, 6-(7-Carboxymethyl-3-thia-9-aza-bicyclo[3.3.1]non-9-ylmethyl)-4-(2-chloro-4-fluoro-phenyl)-2-thiazol-2-yl-1,4-dihydro-pyrimidine-5-carboxylic acid methyl ester] | 188 (≈ 333 µM) |  | 54.5 |  | 
COC(=O)C1=C(CN2[C@@H]3CC[C@H]2C[C@@H](O)C3)NC(c2nccs2)=N[C@H]1c1ccc(F)cc1Cl [Example 44, (R)-4-(2-Chloro-4-fluoro-phenyl)-6-((1R,3R,5S)-3-hydroxy-8-aza-bicyclo[3.2.1]oct-8-ylmethyl)-2-thiazol-2-yl-1,4-dihydro-pyrimidine-5-carboxylic acid methyl ester] | > 623 | 7.1 |  |  | 
COC(=O)C1=C(CN2[C@H]3C[C@H](CC(=O)O)C[C@@H]2C(F)(F)C3)NC(c2nccs2)=N[C@H]1c1ccc(F)cc1Cl [Example 110, 2-[(1S,3S,5R)-8-[[(4R)-4-(2-chloro-4-fluoro-phenyl)-5-methoxycarbonyl-2-thiazol-2-yl-1,4-dihydropyrimidin-6-yl]methyl]-6,6-difluoro-8-azabicyclo[3.2.1]octan-3-yl]acetic acid] |  | 4.1 | 44.3 |  | 
COC(=O)C1=C(CN2C3CCC2CN(C(C)=O)C3)NC(c2nccs2)=N[C@H]1c1ccc(F)cc1Cl [Example 122, Methyl (4R)-6-[(3-acetyl-3,8-diazabicyclo[3.2.1]octan-8-yl)methyl]-4-(2-chloro-4-fluoro-phenyl)-2-thiazol-2-yl-1,4-dihydropyrimidine-5-carboxylate] |  | 7.0 | 77.4 |  | 
CCOC(=O)C1=C(CN2C3COCC2C(F)(F)[C@@H](CC(=O)O)C3)NC(c2nccs2)=N[C@H]1c1ccc(F)c(F)c1C (stereo partly drawn) [Example 127, 2-[(7R)-9-[[(4S)-4-(3,4-difluoro-2-methyl-phenyl)-5-ethoxycarbonyl-2-thiazol-2-yl-1,4-dihydropyrimidin-6-yl]methyl]-6,6-difluoro-3-oxa-9-azabicyclo[3.3.1]nonan-7-yl]acetic acid] |  | 2.9 | 16.1 |  | 
CCOC(=O)C1=C(CN2C3COCC2C(F)(F)[C@@H](CC(=O)O)C3)NC(c2nccs2)=N[C@H]1c1cccc(F)c1Cl (stereo partly drawn) [Example 129, 2-[(7R)-9-[[(4R)-4-(2-chloro-3-fluoro-phenyl)-5-ethoxycarbonyl-2-thiazol-2-yl-1,4-dihydropyrimidin-6-yl]methyl]-6,6-difluoro-3-oxa-9-azabicyclo[3.3.1]nonan-7-yl]acetic acid] |  | 2.0 | 21 |  | 
CCOC(=O)C1=C(CN2C3CC(C(=O)O)CC2C(F)(F)C3)NC(c2nccs2)=N[C@H]1c1cccc(F)c1Cl (stereo partly drawn) [Example 150, 8-[[(4R)-4-(2-chloro-3-fluoro-phenyl)-5-ethoxycarbonyl-2-thiazol-2-yl-1,4-dihydropyrimidin-6-yl]methyl]-6,6-difluoro-8-azabicyclo[3.2.1]octane-3-carboxylic acid] |  | 3.1 | 7.7 |  | 
